From US4668782A, “Anhydrous crystalline or crystalline hemihydrate monohydrate or trihydrate of cephalosporin derivative” (Teijin Limited, priority 1984, dated 1987)
Converted amounts (≈) assume the structure as drawn. Read-outs that look alike come from different tables or passages of the source.

Assays:
[1] = assay type: physicochemical; conditions: sealed brown vials
Protocol: (2) The trihydrate, monohydrate, hemihydrate, and anhydride were sealed up in the brown vials respectively and stored at 85° C. and were analyzed by high performance liquid chromatography later. The result is shown in the following table (residuum percentage: %).

moisture uptake = assay type: physicochemical
[2] = test system: Gram-positive and Gram-negative bacterials; conditions: Japanese Laid-Open Patent Publication No. 219292/1984; cited from earlier work
physchem = conditions: water
[3] = test system: Aerobacter aerogenes ATCC 13048; experiment: antibacterial activity, agar dilution plating method (MIC); assay type: cell-based; conditions: Klebsiella aerogenes, ATCC13048
Protocol: (§1) (ii) The antibacterial activity of the obtained amorphous substance was determined according to the ordinary agar dilution plating method (see the Chemotherapy, 23(8), 1 (1975), of Japan Chemotherapy Society).

[4] = test system: Bacillus prodigiosus IAM 1184; experiment: as above; assay type: cell-based; conditions: IAM1184
Protocol: as §1

[5] = test system: Coliform bacillus NIHJ-JC-2; experiment: as above; assay type: cell-based; conditions: NIHJJC2
Protocol: as §1

Proteus vulgaris OX-19 = experiment: as above; assay type: cell-based; conditions: OX19
Protocol: as §1

[6] = test system: Pseudomonas aeruginosa IFO 3445; experiment: as above; assay type: cell-based; conditions: IFO3445
Protocol: as §1

[7] = test system: Staphylococcus aureus FDA 209 PJC-1; experiment: as above; assay type: cell-based; conditions: FDA209
Protocol: as §1

Typhoid bacillus 901 = experiment: as above; assay type: cell-based
Protocol: as §1

[8] = test system: various kinds of Gram-positive and Gram-negative bacterias; experiment: antibacterial activity against Gram-positive and Gram-negative bacteria (general statement); assay type: cell-based

SMILES	residuum percentage ([1]; 240 h) [%]	residuum percentage ([1]; 576 h) [%]	conversion upon being allowed to take up moisture (moisture uptake)	also measured
CO/N=C(\C(=O)N[C@@H]1C(=O)N2C(C(=O)[O-])=C(C[N+]34CCC(CC3)CC4)CS[C@H]12)c1csc(N)n1 [Amorphous substance, (6R,7R)-7-[(Z)-2-(2-aminothiazole-4-yl)-2-methoxyiminoacetoamido]-3-(1-quinuclidiniummethyl)-3-cephem-4-carboxylate]	0	0	–	–
CO/N=C(\C(=O)N[C@@H]1C(=O)N2C(C(=O)[O-])=C(C[N+]34CCC(CC3)CC4)CS[C@H]12)c1csc(N)n1 [Anhydride, (6R,7R)-7-[(Z)-2-(2-aminothiazole-4-yl)-2-methoxyiminoacetoamido]-3-(1-quinuclidiniummethyl)-3-cephem-4-carboxylate]	97.5	86.0	reversionally converted back to the original trihydrate	–
CO/N=C(\C(=O)N[C@@H]1C(=O)N2C(C(=O)[O-])=C(C[N+]34CCC(CC3)CC4)CS[C@H]12)c1csc(N)n1 [Hemihydrate, (6R,7R)-7-[(Z)-2-(2-aminothiazole-4-yl)-2-methoxyiminoacetoamido]-3-(1-quinuclidiniummethyl)-3-cephem-4-carboxylate]	98.3	86.3	reversionally converted back to the original trihydrate	–
CO/N=C(\C(=O)N[C@@H]1C(=O)N2C(C(=O)[O-])=C(C[N+]34CCC(CC3)CC4)CS[C@H]12)c1csc(N)n1 [Monohydrate, (6R,7R)-7-[(Z)-2-(2-aminothiazole-4-yl)-2-methoxyiminoacetoamido]-3-(1-quinuclidiniummethyl)-3-cephem-4-carboxylate]	96.1	85.5	reversionally converted back to the original trihydrate	–
CO/N=C(\C(=O)N[C@@H]1C(=O)N2C(C(=O)[O-])=C(C[N+]34CCC(CC3)CC4)CS[C@H]12)c1csc(N)n1 [Trihydrate, (6R,7R)-7-[(Z)-2-(2-aminothiazole-4-yl)-2-methoxyiminoacetoamido]-3-(1-quinuclidiniummethyl)-3-cephem-4-carboxylate]	97.0	86.8	–	–
CO/N=C(\C(=O)N[C@@H]1C(=O)N2C(C(=O)[O-])=C(C[N+]34CCC(CC3)CC4)CS[C@H]12)c1csc(N)n1 [cephalosporin derivative A, (6R,7R)-7-[(Z)-2-(2-aminothiazole-4-yl)-2-methoxyiminoacetoamido]-3-(1-quinuclidiniummethyl)-3-cephem-4-carboxylate]	–	–	–	antibacterial activity [2]: strong antibacterial activity; solubility (physchem): ~300 mg/mL (≈ 592000 µM)
CO/N=C(\C(=O)N[C@@H]1C(=O)N2C(C(=O)[O-])=C(C[N+]34CCC(CC3)CC4)CS[C@H]12)c1nsc(N)n1 [cephalosporin derivative B, (6R,7R)-7-[(Z)-2-(5-amino-1-thia-2,4-diazole-3-yl)-2-methoxyiminoacetoamido]-3-(1-quinuclidiniummethyl)-3-cephem-4-carboxylate]	–	–	–	MIC [3]: 0.1 µg/mL (≈ 0.197 µM); MIC [4]: 0.1 µg/mL (≈ 0.197 µM); MIC [5]: 0.05 µg/mL (≈ 0.0985 µM); MIC (Proteus vulgaris OX-19): 0.2 µg/mL (≈ 0.394 µM); MIC [6]: 0.4 µg/mL (≈ 0.788 µM); MIC [7]: 3.1 µg/mL (≈ 6.11 µM); MIC (Typhoid bacillus 901): 0.2 µg/mL (≈ 0.394 µM); antibacterial activity [8]: strong antibacterial activity; solubility (physchem): ~300 mg/mL (≈ 591000 µM)
